Results: patent US8618163B2, “Derivatives of cycloalkyl- and cycloalkenyl-1,2-dicarboxylic acid compounds having formyl peptide receptor like-1 (FPRL-1) agonist or antagonist activity” (Allergan, Inc., priority 2010, dated 2013)
Where two headings read alike, the source gives them in different places.

Tests used:
FPRL1 = target: T1, FPRL1 (Homo sapiens, UniProt P25090); assay: compound-induced calcium activity on FLIPR Tetra in CHO-Gal6 cells stably expressing FPRL1; type: cell-based; conditions: for FPRL1 (rel. eff.): relative efficacy
T1 construct: expressed in transfected cells; host or cells: CHO-Gal6 (CHO cells with G alpha 16)
T1 sequence (P25090 1-351): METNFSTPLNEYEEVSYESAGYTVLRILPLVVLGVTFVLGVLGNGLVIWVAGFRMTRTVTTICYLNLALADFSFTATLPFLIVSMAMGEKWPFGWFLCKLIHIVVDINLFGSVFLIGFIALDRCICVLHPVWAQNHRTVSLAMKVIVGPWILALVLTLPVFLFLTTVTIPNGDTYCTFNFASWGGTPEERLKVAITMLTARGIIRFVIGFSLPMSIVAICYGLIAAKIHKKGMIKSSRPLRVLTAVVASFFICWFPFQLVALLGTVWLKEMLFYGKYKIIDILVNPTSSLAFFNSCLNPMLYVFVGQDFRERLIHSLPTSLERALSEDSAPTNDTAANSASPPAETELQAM
Procedure: (§1) CHO-Gal6 cells stably expressing FPRL1 were cultured in (F12, 10% FBS, 1% PSA, 400 μg/ml geneticin and 50 μg/ml hygromycin) and HEK-Gqi5 cells stable expressing FPR1 were cultured in (DMEM high glucose, 10% FBS, 1% PSA, 400 μg/ml geneticin and 50 μg/ml hygromycin). In general, the day before the experiment, 18,000 cells/well were plated in a 384-well clear bottom poly-d-lysine coated plate. The following day the screening compound-induced calcium activity was assayed on the FLIPR^Tetra. The drug plates were prepared in 384-well microplates using the EP3 and the MultiPROBE robotic liquid handling systems. Compounds were tested at concentrations ranging from 0.61 to 10,000 nM. Results are expressed as EC50 (nM) and efficacy values.

FPR1 = target: T2, FPR1 (Homo sapiens, UniProt P21462); assay: compound-induced calcium activity on FLIPR Tetra in HEK-Gqi5 cells stable expressing FPR1; type: cell-based; set-up: FPR1 (rel. eff.): scale not given here; conditions: for FPR1 (rel. eff.): relative efficacy
T2 construct: expressed in transfected cells; host or cells: HEK-Gqi5 (HEK cells with chimeric G protein Gqi5)
T2 sequence (P21462 1-350): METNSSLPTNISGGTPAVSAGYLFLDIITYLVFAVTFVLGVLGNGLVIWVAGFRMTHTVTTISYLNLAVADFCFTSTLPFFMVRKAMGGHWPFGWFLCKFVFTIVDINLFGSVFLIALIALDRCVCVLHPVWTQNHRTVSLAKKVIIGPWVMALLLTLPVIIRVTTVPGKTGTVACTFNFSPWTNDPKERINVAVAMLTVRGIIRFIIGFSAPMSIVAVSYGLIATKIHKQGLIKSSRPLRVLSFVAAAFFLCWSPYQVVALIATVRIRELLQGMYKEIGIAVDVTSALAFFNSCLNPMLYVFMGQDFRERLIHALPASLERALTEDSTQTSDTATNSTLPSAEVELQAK
Procedure: as §1

[1] = calcium, FLIPR Tetra, tested 0.61 to 10,000 nM, read-out: FPRL1 EC50
[2] = class symbol NA, read-out: FPR1 EC50 (NA = Not Active)
[3] = calcium, FLIPR Tetra, tested 0.61 to 10,000 nM, read-out: FPR1 EC50

Row | EC50 (FPRL1; [1]) [nM] | FPRL1 (rel. eff.) (FPRL1; calcium, FLIPR Tetra) | EC50 (FPR1; [2]) [nM] | EC50 (FPR1; [3]) [nM] | FPR1 (rel. eff.) (FPR1; calcium, FLIPR Tetra) | EC50 (FPRL1; class symbol NA, read-out: FPRL1 EC50 (NA = Not Active)) [nM] | SMILES
1 | 30 | 0.96 | > 10000 | – | – | – | CC(C)=C1[C@H]2C=C[C@@H]1[C@H](C(=O)O)[C@@H]2C(=O)Nc1ccc(Br)cc1 (racemic) [Compound 20, (+/−)-(1S,4R,5S,6R)-6-(4-Bromophenylcarbamoyl) [bicyclo[2.2.1]hept[2]ene-7-propan-2-ylidene]-5-carboxylic Acid]
2 | – | ND (0.39) | > 10000 | – | – | – | CC(C)c1ccc(NC(=O)C2C(C(=O)O)C3C=CC2C32CC2)cc1 (racemic) [Compound 6, (+/−)-(1S,4R,5S,6R)-6-(4-Isopropylphenylcarbamoyl)spiro[bicyclo[2.2.1]hept[2]ene-7,1′-cyclopropane]-5-carboxylic Acid]
3 | 5 | 0.89 | > 10000 | – | – | – | NC(=O)[C@@H]1[C@H](C(=O)Nc2ccc(I)cc2)[C@@H]2CC[C@H]1C21CC1 (racemic) [Compound 62, (+/−)-(1S,2R,3S,4R)—N^2-(4-Iodophenyl)-[bicyclo[2.2.1]heptane-7,1′-cyclopropane]-2,3-dicarboxamide]
4 | 5810 | 0.58 | > 10000 | – | – | – | N=C[C@@H]1[C@H](C(=O)Nc2ccccc2)[C@@H]2CC[C@H]1C21CC1 (racemic) [Compound 93, (+/−)-(1S,2R,3S,4R)-3-(Iminomethyl)-N-phenylspiro[bicyclo[2.2.1]heptane-7,1′-cyclopropane]-2-carboxamide]
5 | 2140 | 0.88 | > 10000 | – | – | – | O=C(OCc1ccccc1)[C@@H]1[C@H](C(=O)Nc2ccc(Br)cc2)[C@@H]2CC[C@H]1C21CC1 (racemic) [Compound 85, (+/−)-(1S,2R,3S,4R)-Benzyl 2-((4-bromophenyl)carbamoyl)spiro[bicyclo[2.2.1]heptane-7,1′-cyclopropane]-3-carboxylate]
6 | 1 | 0.80 | – | 269 | 0.73 | – | O=C(O)[C@@H]1[C@H](C(=O)Nc2ccc(I)cc2)[C@@H]2CC[C@H]1C21CC1 (racemic) [Compound 9, (+/−)-(1R,2S,3R,4S)-3-(4-Iodophenylcarbamoyl)spiro[bicyclo[2.2.1]heptane-7,1′-cyclopropane]-2-carboxylic Acid]
7 | – | 0.85 | – | 639 | 0.33 | – | CC1(C)[C@@H]2CC[C@H]1[C@@H](C(=O)Nc1ccc(Br)cc1)[C@H]2C(=O)O (racemic) [Compound 13, (+/−)-(1R,2S,3R,4S)-3-(4-Bromophenylcarbamoyl)-7,7-dimethylbicyclo[2.2.1]heptane-2-carboxylic Acid]
8 | – | ND (0.96) | > 10000 | – | – | – | CSc1ccc(NC(=O)[C@H]2[C@@H](C(N)=O)[C@H]3CC[C@@H]2C3(C)C)cc1 (racemic) [Compound 56, (+/−)-(1S,2R,3S,4R)-7,7-Dimethyl-N2-(4-(methylthio)phenyl)bicyclo[2.2.1]heptane-2,3-dicarboxamide]
9 | 8.8 | 0.86 | > 10000 | – | – | – | O=C(NCCO)[C@@H]1[C@H](C(=O)Nc2ccc(Br)cc2)[C@@H]2CC[C@H]1C21CC1 (racemic) [Compound 82, (+/−)-(1S,2R,3S,4R)—N^2-(4-Bromophenyl)-N^3-[2-hydroxyethyl]spiro[bicyclo[2.2.1]heptane-7,1′-cyclopropane]-2,3-dicarboxamide]
10 | 50.8 | 0.79 | > 10000 | – | – | – | CCc1ccc(NC(=O)C2C(C(N)=O)C3C=CC2C32CC2)cc1 (racemic) [Compound 66, (+/−)-(1R,4S,5R,6S)—N^5-(4-Ethylphenyl)spiro[bicyclo[2.2.1]hept[2]ene-7,1′-cyclopropane]-5,6-dicarboxamide]

Second part, the compound before the results:

Row | SMILES | EC50 (FPRL1; [1]) [nM] | FPRL1 (rel. eff.) (FPRL1; calcium, FLIPR Tetra) | EC50 (FPR1; [2]) [nM] | EC50 (FPR1; [3]) [nM] | FPR1 (rel. eff.) (FPR1; calcium, FLIPR Tetra) | EC50 (FPRL1; class symbol NA, read-out: FPRL1 EC50 (NA = Not Active)) [nM]
11 | CSc1ccc(NC(=O)[C@H]2[C@@H](C(N)=O)[C@H]3CC[C@@H]2C32CC2)cc1 (racemic) [Compound 67, (+/−)-(1S,2R,3S,4R)—N^2-(4-(Methylthio)phenyl)-spiro[bicyclo[2.2.1]heptane-7,1′-cyclopropane]-2,3-dicarboxamide] | 15.7 | 0.91 | > 10000 | – | – | –
12 | NC(=O)[C@@H]1[C@H](C(=O)Nc2ccc(I)cc2)[C@@H]2CC[C@H]1C21CC1 (racemic) [Compound 51, (+/−)-(1S,2R,3S,4R)—N2-(4-Iodophenyl)spiro[bicyclo[2.2.1]heptane-7,1′-cyclopropane]-2,3-dicarboxamide] | < 4.8 | 0.87 | > 10000 | – | – | –
13 | O=C(O)C1C(C(=O)Nc2ccc(Br)cc2)C2CCC1C21CC1 (racemic) [Compound 10A] | 278 | 0.82 | > 10000 | – | – | –
14 | O=C(O)C1C(C(=O)Nc2ccc(-c3ccccc3)cc2)C2C=CC1C21CC1 (racemic) [Compound 26, (+/−)-(1R,4S,5R,6S)-5-([1,1′-Biphenyl]-4-ylcarbamoyl)spiro[bicyclo[2.2.1]hept[2]ene-7,1′-cyclopropane]-6-carboxylic Acid] | 2360 | 0.69 | > 10000 | – | – | –
15 | O=C(O)[C@@H]1[C@H](C(=O)NNc2ccc(Br)cc2)[C@@H]2CC[C@H]1C21CC1 (racemic) [Compound 87, (+/−)-(1S,2R,3S,4R)-2-(2-(4-Bromophenyl)hydrazinecarbonyl)spiro[bicyclo[2.2.1]heptane-7,1′-cyclopropane]-3-carboxylic Acid] | 456 | 0.89 | > 10000 | – | – | –
16 | O=C(O)[C@@H]1[C@H](C(=O)Nc2ccc(OC(F)(F)F)cc2)[C@@H]2CC[C@H]1C21CC1 (racemic) [Compound 41, (+/−)-(1R,2S,3R,4S)-3-((4-(Trifluoromethoxy)phenyl)carbamoyl)spiro-[bicyclo[2.2.1]heptane-7,1′-cyclopropane]-2-carboxylic Acid] | 123 | 0.80 | > 10000 | – | – | –
17 | CCc1ccc(NC(=O)[C@H]2[C@@H](C(N)=O)[C@H]3CC[C@@H]2C32CC2)cc1 (racemic) [Compound 52, (+/−)-(1S,2R,3S,4R)—N^2-(4-Ethylphenyl)spiro[bicyclo[2.2.1]heptane-7,1′-cyclopropane]-2,3-dicarboxamide] | 33 | 0.97 | > 10000 | – | – | –
18 | O=C(O)C1C(C(=O)Nc2ccc(Cl)c(Cl)c2)C2C=CC1C21CC1 (racemic) [Compound 28, (+/−)-(1S,4R,5S,6R)-6-((3,4-Dichlorophenyl)carbamoyl)spiro[bicyclo[2.2.1]hept[2]-ene-7,1′-cyclopropane]-5-carboxylic Acid] | 616 | 0.70 | > 10000 | – | – | –
19 | CCc1ccc(NC(=O)[C@H]2[C@@H](C(N)=O)[C@H]3CC[C@@H]2C3(C)C)cc1 (racemic) [Compound 57, (+/−)-(1S,2R,3S,4R)—N2-(4-Ethylphenyl)-7,7-dimethylbicyclo[2.2.1]heptane-2,3-dicarboxamide] | 35 | 0.95 | > 10000 | – | – | –
20 | O=C(O)[C@@H]1[C@H](C(=O)Nc2ccc3c(c2)oc2ccccc23)[C@@H]2CC[C@H]1C21CC1 (racemic) [Compound 31, (+/−)-(1S,4R,5S,6R)-6-(dibenzo[b,d]furan-3-ylcarbamoyl)spiro[bicyclo[2.2.1]-heptane-7,1′-cyclopropane]-5-carboxylic acid] | 2260 | 0.9 | > 10000 | – | – | –
21 | O=C1C2C(C(O)N1c1ccc(Br)cc1)C1CCC2C12CC2 (racemic) [Compound 91, (+/−)-(3aR,4S,7R,7aS)-2-(4-Bromophenyl)-1-hydroxyhexahydro-1H-spiro[4,7-methanoisoindole-8,1′-cyclopropane]-3(2H)-one] | – | – | > 10000 | – | – | > 10000
22 | CC1(C)[C@@H]2CC[C@H]1[C@@H](C(=O)Nc1ccc(Cl)cc1)[C@H]2C(=O)O (racemic) [Compound 14, (+/−)-(1R,2S,3R,4S)-3-(4-Chlorophenylcarbamoyl)-7,7-dimethylbicyclo[2.2.1]heptane-2-carboxylic Acid] | 36 | 0.86 | > 10000 | – | – | –
